# Earlier results, collected in US20080248135A1, “Combination Therapy for Otitis with Antiseptic and pH Adjustment” (Collegium Pharmaceutical, Inc., priority 2006, published 2008).
# Experiments:
# P. aeruginosa = details: background statement
# Aspergillus = details: antifungal creams; background statement
compound,measurement,setting,value
CC1(C)S[C@@H]2[C@H](NC(=O)[C@H](N)c3ccccc3)C(=O)N2[C@H]1C(=O)O [ampicillin],Activity against P. aeruginosa,P. aeruginosa,no activity
N[C@@H](C(=O)N[C@@H]1C(=O)N2C(C(=O)O)=C(Cl)CS[C@H]12)c1ccccc1 [cefaclor],Activity against P. aeruginosa,P. aeruginosa,no activity
CC1=C(C(=O)O)N2C(=O)[C@@H](NC(=O)[C@H](N)c3ccccc3)[C@H]2SC1 [cephalexin],Activity against P. aeruginosa,P. aeruginosa,no activity
Clc1ccccc1C(c1ccccc1)(c1ccccc1)n1ccnc1 [clotrimazole],Effectiveness against Aspergillus,Aspergillus,not effective
"II [iodine, elemental iodine (I2)]",Saturating concentration of iodine in water,,ca. 0.0013 M
C[C@@H]1[C@H](O)[C@@H](C)/C=C/C=C/CC/C=C/C=C/C=C/C=C/C(O[C@H]2O[C@H](C)[C@@H](O)[C@H](N)[C@@H]2O)CC2O[C@](O)(CC(O)C(O)CCC(O)CC(O)CC(O)CC(=O)O[C@H]1C)CC(O)C2C(=O)O (stereo partly shown) [nystatin],Effectiveness against Aspergillus,Aspergillus,not effective
trimethoprim-sulfamethoxazole,Activity against P. aeruginosa,P. aeruginosa,no activity
